Test results: PubChem BioAssay (NCI)
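Five concentrations, 48 hours, 96-well plates. GI50: concentration for 50% inhibition of growth. At the TGI there is no net growth.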

How the values were obtained:
Assay in all cases: NCI-60 cell line screen, 48 h
EKVX NSCLC = test system: EKVX NSCLC
MDA-MB-435 = test system: MDA-MB-435
SF-268 CNS = test system: SF-268 CNS
NCI-H23 lung = test system: NCI-H23 lung
HS 578T breast = test system: HS 578T breast
NCI-H460 lung = test system: NCI-H460 lung
SK-OV-3 ovarian = test system: SK-OV-3 ovarian
HOP-92 NSCLC = test system: HOP-92 NSCLC
HCC-2998 colon = test system: HCC-2998 colon
HL-60(TB) leukemia = test system: HL-60(TB) leukemia
HT29 colon = test system: HT29 colon
NCI/ADR-RES ovarian = test system: NCI/ADR-RES ovarian
OVCAR-4 ovarian = test system: OVCAR-4 ovarian
M14 melanoma = test system: M14 melanoma
K-562 leukemia = test system: K-562 leukemia
SW-620 colon = test system: SW-620 colon
MCF7 breast = test system: MCF7 breast
T-47D breast = test system: T-47D breast
SK-MEL-5 melanoma = test system: SK-MEL-5 melanoma
CAKI-1 renal = test system: CAKI-1 renal
MOLT-4 leukemia = test system: MOLT-4 leukemia
DU-145 prostate = test system: DU-145 prostate
SNB-75 CNS = test system: SNB-75 CNS
NCI-H522 lung = test system: NCI-H522 lung
ACHN renal = test system: ACHN renal
SNB-19 CNS = test system: SNB-19 CNS
UACC-62 melanoma = test system: UACC-62 melanoma
A498 renal = test system: A498 renal
SR leukemia = test system: SR leukemia
NCI-H226 lung = test system: NCI-H226 lung
PC-3 prostate = test system: PC-3 prostate
HCT-116 colon = test system: HCT-116 colon
MDA-MB-231 breast = test system: MDA-MB-231 breast
SK-MEL-2 melanoma = test system: SK-MEL-2 melanoma
A549 NSCLC = test system: A549 NSCLC
COLO 205 colon = test system: COLO 205 colon
U251 CNS = test system: U251 CNS
CCRF-CEM leukemia = test system: CCRF-CEM leukemia
SK-MEL-28 melanoma = test system: SK-MEL-28 melanoma
SN12C renal = test system: SN12C renal
OVCAR-8 ovarian = test system: OVCAR-8 ovarian
BT-549 breast = test system: BT-549 breast
OVCAR-3 ovarian = test system: OVCAR-3 ovarian
UACC-257 melanoma = test system: UACC-257 melanoma
HCT-15 colon = test system: HCT-15 colon
TK-10 renal = test system: TK-10 renal
SF-295 CNS = test system: SF-295 CNS
LOX IMVI melanoma = test system: LOX IMVI melanoma
786-0 renal = test system: 786-0 renal
SF-539 CNS = test system: SF-539 CNS
OVCAR-5 ovarian = test system: OVCAR-5 ovarian
HOP-62 NSCLC = test system: HOP-62 NSCLC
UO-31 renal = test system: UO-31 renal
RPMI-8226 leukemia = test system: RPMI-8226 leukemia
KM12 colon = test system: KM12 colon
IGROV1 ovarian = test system: IGROV1 ovarian

Question: `CCN1C(=O)N(CC)C2SC(N/N=C/c3ccccc3F)=NC21` (stereo not given) was tested. Which GI50 (EKVX NSCLC) did it give?
Answer: 570 nM

Question: And the TGI (EKVX NSCLC)?
Answer: > 100 µM

Question: And the GI50 (MDA-MB-435)?
Answer: 75.1 nM

Question: What about the TGI (MDA-MB-435) of the same molecule?
Answer: 274 nM

Question: What about the GI50 (SF-268 CNS) of the same molecule?
Answer: 4.17 µM

Question: What about the TGI (SF-268 CNS) of the same molecule?
Answer: > 100 µM

Question: And the GI50 (NCI-H23 lung)?
Answer: 467 nM

Question: What about the TGI (NCI-H23 lung) of the same molecule?
Answer: > 100 µM

Question: What about the GI50 (HS 578T breast) of the same molecule?
Answer: 299 nM

Question: And the TGI (HS 578T breast)?
Answer: > 100 µM

Question: And the GI50 (NCI-H460 lung)?
Answer: 353 nM

Question: And the TGI (NCI-H460 lung)?
Answer: > 100 µM

Question: And the GI50 (SK-OV-3 ovarian)?
Answer: 569 nM

Question: And the TGI (SK-OV-3 ovarian)?
Answer: > 100 µM

Question: And the GI50 (HOP-92 NSCLC)?
Answer: 1280 nM

Question: What about the TGI (HOP-92 NSCLC) of the same molecule?
Answer: > 25.8 µM

Question: What about the GI50 (HCC-2998 colon) of the same molecule?
Answer: 414 nM

Question: And the TGI (HCC-2998 colon)?
Answer: 27 µM

Question: What about the GI50 (HL-60(TB) leukemia) of the same molecule?
Answer: 199 nM

Question: What about the TGI (HL-60(TB) leukemia) of the same molecule?
Answer: 633 nM

Question: What about the GI50 (HT29 colon) of the same molecule?
Answer: 323 nM

Question: What about the TGI (HT29 colon) of the same molecule?
Answer: > 100 µM

Question: What about the GI50 (NCI/ADR-RES ovarian) of the same molecule?
Answer: 312 nM

Question: What about the TGI (NCI/ADR-RES ovarian) of the same molecule?
Answer: > 65.9 µM

Question: And the GI50 (OVCAR-4 ovarian)?
Answer: > 58.3 µM

Question: And the TGI (OVCAR-4 ovarian)?
Answer: > 100 µM

Question: And the GI50 (M14 melanoma)?
Answer: 206 nM

Question: What about the TGI (M14 melanoma) of the same molecule?
Answer: 610 nM

Question: And the GI50 (K-562 leukemia)?
Answer: 194 nM

Question: And the TGI (K-562 leukemia)?
Answer: > 100 µM

Question: What about the GI50 (SW-620 colon) of the same molecule?
Answer: 372 nM

Question: And the TGI (SW-620 colon)?
Answer: > 100 µM

Question: And the GI50 (MCF7 breast)?
Answer: 267 nM

Question: And the TGI (MCF7 breast)?
Answer: > 100 µM

Question: What about the GI50 (T-47D breast) of the same molecule?
Answer: 557 nM

Question: And the TGI (T-47D breast)?
Answer: > 100 µM

Question: What about the GI50 (SK-MEL-5 melanoma) of the same molecule?
Answer: 603 nM

Question: What about the TGI (SK-MEL-5 melanoma) of the same molecule?
Answer: 20.7 µM

Question: What about the GI50 (CAKI-1 renal) of the same molecule?
Answer: 353 nM

Question: And the TGI (CAKI-1 renal)?
Answer: > 100 µM

Question: What about the GI50 (MOLT-4 leukemia) of the same molecule?
Answer: 507 nM

Question: And the TGI (MOLT-4 leukemia)?
Answer: > 100 µM

Question: What about the GI50 (DU-145 prostate) of the same molecule?
Answer: 462 nM

Question: And the TGI (DU-145 prostate)?
Answer: > 100 µM

Question: And the GI50 (SNB-75 CNS)?
Answer: 207 nM

Question: What about the TGI (SNB-75 CNS) of the same molecule?
Answer: > 73 µM

Question: And the GI50 (NCI-H522 lung)?
Answer: 172 nM

Question: What about the TGI (NCI-H522 lung) of the same molecule?
Answer: 527 nM

Question: And the GI50 (ACHN renal)?
Answer: 864 nM

Question: And the TGI (ACHN renal)?
Answer: > 100 µM

Question: And the GI50 (SNB-19 CNS)?
Answer: 430 nM

Question: What about the TGI (SNB-19 CNS) of the same molecule?
Answer: > 100 µM

Question: And the GI50 (UACC-62 melanoma)?
Answer: 295 nM

Question: What about the TGI (UACC-62 melanoma) of the same molecule?
Answer: > 100 µM

Question: And the GI50 (A498 renal)?
Answer: 204 nM

Question: And the TGI (A498 renal)?
Answer: 836 nM

Question: What about the GI50 (SR leukemia) of the same molecule?
Answer: 165 nM

Question: And the TGI (SR leukemia)?
Answer: > 100 µM

Question: What about the GI50 (NCI-H226 lung) of the same molecule?
Answer: 1960 nM

Question: And the TGI (NCI-H226 lung)?
Answer: > 100 µM

Question: What about the GI50 (PC-3 prostate) of the same molecule?
Answer: 347 nM

Question: And the TGI (PC-3 prostate)?
Answer: > 100 µM

Question: What about the GI50 (HCT-116 colon) of the same molecule?
Answer: 369 nM

Question: What about the TGI (HCT-116 colon) of the same molecule?
Answer: > 100 µM

Question: And the GI50 (MDA-MB-231 breast)?
Answer: 635 nM

Question: What about the TGI (MDA-MB-231 breast) of the same molecule?
Answer: > 100 µM

Question: And the GI50 (SK-MEL-2 melanoma)?
Answer: 326 nM

Question: What about the TGI (SK-MEL-2 melanoma) of the same molecule?
Answer: > 100 µM

Question: And the GI50 (A549 NSCLC)?
Answer: 526 nM

Question: And the TGI (A549 NSCLC)?
Answer: > 100 µM

Question: And the GI50 (COLO 205 colon)?
Answer: 298 nM

Question: And the TGI (COLO 205 colon)?
Answer: 1480 nM

Question: And the GI50 (U251 CNS)?
Answer: 342 nM

Question: What about the TGI (U251 CNS) of the same molecule?
Answer: > 39.2 µM

Question: And the GI50 (CCRF-CEM leukemia)?
Answer: 364 nM

Question: What about the TGI (CCRF-CEM leukemia) of the same molecule?
Answer: > 100 µM

Question: What about the GI50 (SK-MEL-28 melanoma) of the same molecule?
Answer: 5.62 µM

Question: And the TGI (SK-MEL-28 melanoma)?
Answer: > 100 µM

Question: What about the GI50 (SN12C renal) of the same molecule?
Answer: 567 nM

Question: What about the TGI (SN12C renal) of the same molecule?
Answer: > 100 µM

Question: What about the GI50 (OVCAR-8 ovarian) of the same molecule?
Answer: 425 nM

Question: And the GI50 (BT-549 breast)?
Answer: 298 nM

Question: What about the TGI (BT-549 breast) of the same molecule?
Answer: 1590 nM

Question: What about the GI50 (OVCAR-3 ovarian) of the same molecule?
Answer: 330 nM

Question: And the TGI (OVCAR-3 ovarian)?
Answer: > 100 µM

Question: What about the GI50 (UACC-257 melanoma) of the same molecule?
Answer: 2170 nM

Question: What about the TGI (UACC-257 melanoma) of the same molecule?
Answer: > 64.4 µM

Question: What about the GI50 (HCT-15 colon) of the same molecule?
Answer: 344 nM

Question: And the TGI (HCT-15 colon)?
Answer: > 100 µM

Question: What about the TGI (TK-10 renal) of the same molecule?
Answer: > 100 µM

Question: What about the GI50 (SF-295 CNS) of the same molecule?
Answer: 293 nM

Question: And the TGI (SF-295 CNS)?
Answer: > 100 µM

Question: And the GI50 (LOX IMVI melanoma)?
Answer: 556 nM

Question: What about the TGI (LOX IMVI melanoma) of the same molecule?
Answer: > 100 µM

Question: What about the GI50 (786-0 renal) of the same molecule?
Answer: 657 nM

Question: What about the TGI (786-0 renal) of the same molecule?
Answer: > 86.1 µM

Question: What about the GI50 (SF-539 CNS) of the same molecule?
Answer: 238 nM

Question: What about the TGI (SF-539 CNS) of the same molecule?
Answer: 772 nM

Question: And the GI50 (OVCAR-5 ovarian)?
Answer: 517 nM

Question: What about the TGI (OVCAR-5 ovarian) of the same molecule?
Answer: > 100 µM

Question: And the GI50 (HOP-62 NSCLC)?
Answer: 474 nM

Question: What about the TGI (HOP-62 NSCLC) of the same molecule?
Answer: > 100 µM

Question: And the GI50 (UO-31 renal)?
Answer: 643 nM

Question: What about the TGI (UO-31 renal) of the same molecule?
Answer: > 100 µM

Question: And the GI50 (RPMI-8226 leukemia)?
Answer: 355 nM

Question: What about the TGI (RPMI-8226 leukemia) of the same molecule?
Answer: > 100 µM

Question: What about the GI50 (KM12 colon) of the same molecule?
Answer: 383 nM

Question: What about the TGI (KM12 colon) of the same molecule?
Answer: > 54.8 µM

Question: What about the GI50 (IGROV1 ovarian) of the same molecule?
Answer: 599 nM

Question: And the TGI (IGROV1 ovarian)?
Answer: > 100 µM
